Drawing on US12404270B2, “Quinazoline derivatives as LPA receptor 2 inhibitors” (CHIESI FARMACEUTICI S.P.A., priority 2019, dated 2025), this text covers IC50 for 22 compounds.

One may read the IC50 as the concentration at which inhibition is half-maximal.

Some results are limits rather than exact numbers.

T1 sequence (Q9HBW0 whole entry): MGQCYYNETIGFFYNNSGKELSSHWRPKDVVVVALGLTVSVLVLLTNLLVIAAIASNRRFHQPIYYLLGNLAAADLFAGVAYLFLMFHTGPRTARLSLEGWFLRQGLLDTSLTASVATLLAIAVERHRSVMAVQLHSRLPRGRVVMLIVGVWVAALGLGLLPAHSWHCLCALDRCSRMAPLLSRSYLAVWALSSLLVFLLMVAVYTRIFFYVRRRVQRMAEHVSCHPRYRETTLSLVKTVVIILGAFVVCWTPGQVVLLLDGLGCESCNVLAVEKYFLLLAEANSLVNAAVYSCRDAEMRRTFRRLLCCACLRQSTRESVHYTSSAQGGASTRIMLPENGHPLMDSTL

This test has as its target T1, human recombinant LPA2 expressed in CHO cells (Homo sapiens, UniProt Q9HBW0).
T1 construct: expressed in transfected cells; host or cells: CHO (CHO-hLPA2 cell line)
The experiment in a line: FLIPR calcium mobilization assay, LPA2 antagonism in CHO-hLPA2 cells. The settings on record: CHO-hLPA2 cells, inhibition of LPA EC80 Ca2+ response, 30 min pre-incubation; read-out: LPA2 IC50. The class given is cell-based. The procedure: The effectiveness of compounds of the present invention as LPA2 antagonist can be determined at the human recombinant LPA2 expressed in CHO cells, using a FLIPR assay in 384 well format.
CHO-hLPA2 cell lines are cultured in a humidified incubator at 5% CO2 in DMEM/F-12 (1:1) MIXTURE with 2 mM Glutamax, supplemented with 10% of Foetal Bovine Serum, 1 mM Sodium Pyruvate, 11 mM Hepes and 1× Penicillin/Streptomycin. CHO hLPA2 cells are seeded into black walled clear-bottom 384-well plates (#781091, Greiner Bio-One GmbH) at a density of 7,500 cells per well in 50 μl culture media and grown overnight in a 37° C. humidified CO2-incubator. Serial dilutions (1:3 or 1:4, 11 points CRC) of compounds are performed in 100% DMSO at 200× the final concentration. The compounds are diluted 1:50 prior to the experiment with Assay Buffer (20 mM HEPES, 145 mM NaCl, 5 mM KCl, 5.5 mM glucose, 1 mM MgCl2 and 2 mM CaCl2, pH 7.4 containing 0.01% Pluronic F-127) to obtain a solution corresponding to […] the final concentration in the assay (4×, 2% DMSO). The final concentration of DMSO in the assay will be 0.5% in each well. Medium is removed by aspiration and cells are then incubated with 30 μl of a loading solution containing 5 μM of the cytoplasmic Ca2+ indicator Cal-520 AM in Assay Buffer containing 2.5 mM probenecid for 30 min at 37° C. incubator (cell loading). The loaded cell plates are transferred into the FLIPR instrument and calcium responses are monitored during the on-line addition protocols. For testing of compounds, after the cell loading, 10 μl/well of 4× antagonists' solution was added onto the cells. […] Intracellular peak fluorescence values subtracted by baseline fluorescence are exported and analysed to determine IC50 values, respectively. The calcium response is expressed as percentage of the maximal inhibition of the EC80 agonist response.
The raw data (peak height expressed as relative fluorescence units) are normalized and transformed into “percent of inhibition”. Curve fitting and pIC50 (−Log IC50) estimations are carried out using a four-parameter logistic model using XLfit Software.
`COC(=O)Nc1nc(C)c(S(=O)(=O)N2CCN(C[C@H](C)Nc3nc(C4CC4)nc4c(C)cccc34)CC2)s1` [Example 18, methyl N-[5-({4-[(2S)-2-[(2-cyclopropyl-8-methylquinazolin-4-yl)amino]propyl]piperazin-1-yl}sulfonyl)-4-methyl-1,3-thiazol-2-yl]carbamate]: the half-inhibitory concentration (IC50) is 10 to 100 nM.
In the case of `CC(=O)Nc1ccc(S(=O)(=O)N2CCN(C[C@H](C)Nc3ncnc4c(C(F)(F)F)cccc34)CC2)s1` [Example 90, N-[5-({4-[(2S)-2-{[8-(trifluoromethyl)quinazolin-4-yl]amino}propyl]piperazin-1-yl}sulfonyl)thiophen-2-yl]acetamide] it was less than 1000 nM.
Regarding `Cc1cc(-c2ncc(S(=O)(=O)N3CCN(C[C@H](C)Nc4ncnc5c(C(F)(F)F)cccc45)CC3)s2)on1` [Example 63, N-[(2S)-1-(4-{[2-(3-methyl-1,2-oxazol-5-yl)-1,3-thiazol-5-yl]sulfonyl}piperazin-1-yl)propan-2-yl]-8-(trifluoromethyl)quinazolin-4-amine], the IC50 was in the range of 10 to 100 nM.
Then `Cc1noc(-c2ccc(S(=O)(=O)N3CCN(C[C@H](C)Nc4ncnc5c(C(=O)N6CCC[C@@H]6C(F)(F)F)cccc45)CC3)s2)c1C` (racemic) [Example 76, N-[(2S)-1-(4-{[5-(3,4-dimethyl-1,2-oxazol-5-yl)thiophen-2-yl]sulfonyl}piperazin-1-yl)propan-2-yl]-8-[(2R)-2-(trifluoromethyl)pyrrolidine-1-carbonyl]quinazolin-4-amine], with less than 10 nM.
In the case of `C[C@@H](CN1CCN(S(=O)(=O)c2ccc(-c3ccn[nH]3)o2)CC1)Nc1ncnc2c(C(F)(F)F)cccc12` [Example 67, N-[(2S)-1-(4-{[5-(1H-pyrazol-5-yl)furan-2-yl]sulfonyl}piperazin-1-yl)propan-2-yl]-8-(trifluoromethyl)quinazolin-4-amine], the IC50 was less than 1000 nM.
Turning to `COC(=O)Nc1nc(C)c(S(=O)(=O)N2CCN(C[C@H](C)Nc3ncnc4c(C(=O)N5CC6CC6C5)cccc34)CC2)s1` (mixture of isomers) [Example 87, methyl N-[5-({4-[(2S)-2-[(8-{3-azabicyclo[3.1.0]hexane-3-carbonyl}quinazolin-4-yl)amino]propyl]piperazin-1-yl}sulfonyl)-4-methyl-1,3-thiazol-2-yl]carbamate], the half-maximal inhibitory concentration (IC50) is 10 to 100 nM.
For `CC(=O)Nc1cc(F)c(S(=O)(=O)N2CCN(C[C@H](C)Nc3ncnc4c(C(F)(F)F)cccc34)CC2)cc1Cl` [Example 42, N-[2-chloro-5-fluoro-4-({4-[(2S)-2-{[8-(trifluoromethyl)quinazolin-4-yl]amino}propyl]piperazin-1-yl}sulfonyl)phenyl]acetamide], the IC50 was less than 1000 nM.
In the case of `C[C@@H](CN1CCN(S(=O)(=O)c2cc(-c3ccno3)cs2)CC1)Nc1ncnc2c(C(F)(F)F)cccc12` [Example 71, N-[(2S)-1-(4-{[4-(1,2-oxazol-5-yl)thiophen-2-yl]sulfonyl}piperazin-1-yl)propan-2-yl]-8-(trifluoromethyl)quinazolin-4-amine] it was 10 to 100 nM.
In the case of `COCc1nc(N[C@@H](C)CN2CCN(S(=O)(=O)c3ccc(-c4onc(C)c4C)s3)CC2)c2cccc(C(F)(F)F)c2n1` [Example 61, N-[(2S)-1-(4-{[5-(3,4-dimethyl-1,2-oxazol-5-yl)thiophen-2-yl]sulfonyl}piperazin-1-yl)propan-2-yl]-2-(methoxymethyl)-8-(trifluoromethyl)quinazolin-4-amine] it was less than 1000 nM.
Consider `Cc1noc(-c2ccc(S(=O)(=O)N3CCN(C[C@H](C)Nc4ncnc5c(C(=O)N6CC7CC7C6)cccc45)CC3)s2)c1C` (mixture of isomers) [Example 85, 8-{3-azabicyclo[3.1.0]hexane-3-carbonyl}-N-[(2S)-1-(4-{[5-(3,4-dimethyl-1,2-oxazol-5-yl)thiophen-2-yl]sulfonyl}piperazin-1-yl)propan-2-yl]quinazolin-4-amine], for which the IC50 is less than 10 nM.
Then `Cc1cc(-c2ccc(S(=O)(=O)N3CCN(C[C@H](C)Nc4ncnc5c(N(C)C)cccc45)CC3)s2)on1` [Example 96, N8,N8-dimethyl-N4-[(2S)-1-(4-{[5-(3-methyl-1,2-oxazol-5-yl)thiophen-2-yl]sulfonyl}piperazin-1-yl)propan-2-yl]quinazoline-4,8-diamine], with less than 10 nM.
In the case of `COC(=O)Nc1ncc(S(=O)(=O)N2CCN(C[C@H](C)Nc3ncnc4c(C(F)(F)F)cccc34)CC2)s1` [Example 26, methyl N-[5-({4-[(2S)-2-{[8-(trifluoromethyl)quinazolin-4-yl]amino}propyl]piperazin-1-yl}sulfonyl)-1,3-thiazol-2-yl]carbamate], the IC50 was less than 1000 nM.
As for `COC(=O)Nc1nc(C)c(S(=O)(=O)N2CCN(C[C@H](C)Nc3nc(C(F)(F)F)nc4ccccc34)CC2)s1` [Example 11, methyl N-[4-methyl-5-({4-[(2S)-2-{[2-(trifluoromethyl)quinazolin-4-yl]amino}propyl]piperazin-1-yl}sulfonyl)-1,3-thiazol-2-yl]carbamate], the 50% inhibitory concentration (IC50) is less than 1000 nM.
With `COC(=O)c1cccc2c(N[C@@H](C)CN3CCN(S(=O)(=O)c4cnc(-c5ccccc5)s4)CC3)ncnc12` [Example 12, methyl 4-{[(2S)-1-{4-[(2-phenyl-1,3-thiazol-5-yl)sulfonyl]piperazin-1-yl}propan-2-yl]amino}quinazoline-8-carboxylate], the IC50 is 10 to 100 nM.
Then `COC(=O)Nc1nc(C)c(S(=O)(=O)N2CCN(C[C@H](C)Nc3ncnc4c(C(=O)N5CCC[C@@H]5C)cccc34)CC2)s1` (racemic) [Example 82, methyl N-[4-methyl-5-({4-[(2S)-2-({8-[(2S)-2-methylpyrrolidine-1-carbonyl]quinazolin-4-yl}amino)propyl]piperazin-1-yl}sulfonyl)-1,3-thiazol-2-yl]carbamate], with 10 to 100 nM; and `COC(=O)Nc1nc(C)c(S(=O)(=O)N2CCN(C[C@H](C)Nc3nc(C4CC4)nc4ccccc34)CC2)s1` [Example 15, methyl N-[5-({4-[(2S)-2-[(2-cyclopropylquinazolin-4-yl)amino]propyl]piperazin-1-yl}sulfonyl)-4-methyl-1,3-thiazol-2-yl]carbamate], with less than 1000 nM.
Then `COC(=O)c1cccc2c(N[C@@H](C)CN3CCN(S(=O)(=O)c4ccc(-c5ccno5)s4)CC3)ncnc12` [Example 16, methyl 4-{[(2S)-1-(4-{[5-(1,2-oxazol-5-yl)thiophen-2-yl]sulfonyl}piperazin-1-yl)propan-2-yl]amino}quinazoline-8-carboxylate], with 10 to 100 nM; and `Cc1noc(-c2ccc(S(=O)(=O)N3CCN(C[C@H](C)Nc4ncnc5c(C(=O)N6CCC[C@H]6C(F)(F)F)cccc45)CC3)s2)c1C` (racemic) [Example 69, N-[(2S)-1-(4-{[5-(3,4-dimethyl-1,2-oxazol-5-yl)thiophen-2-yl]sulfonyl}piperazin-1-yl)propan-2-yl]-8-[(2S)-2-(trifluoromethyl)pyrrolidine-1-carbonyl]quinazolin-4-amine], with less than 10 nM.
Regarding `COC(=O)Nc1nc(C)c(S(=O)(=O)N2CCN(C[C@H](C)Nc3ncnc4c(C(=O)N5CCC[C@@H]5C(F)(F)F)cccc34)CC2)s1` (racemic) [Example 79, methyl N-[4-methyl-5-({4-[(2S)-2-({8-[(2R)-2-(trifluoromethyl)pyrrolidine-1-carbonyl]quinazolin-4-yl}amino)propyl]piperazin-1-yl}sulfonyl)-1,3-thiazol-2-yl]carbamate], the 50% inhibitory concentration (IC50) lay in the range of 10 to 100 nM.
Turning to `Cc1noc(-c2ccc(S(=O)(=O)N3CCN(C[C@H](C)Nc4ncnc5c(CN(C)C)cccc45)CC3)s2)c1C` [Example 74, N-[(2S)-1-(4-{[5-(3,4-dimethyl-1,2-oxazol-5-yl)thiophen-2-yl]sulfonyl}piperazin-1-yl)propan-2-yl]-8-[(dimethylamino)methyl]quinazolin-4-amine], the IC50 was less than 1000 nM.
Regarding `C[C@@H](CN1CCN(S(=O)(=O)c2ccc(Cl)c(Cl)c2)CC1)Nc1ncnc2c(Cl)cccc12` [Example 6, 8-chloro-N-[(2S)-1-[4-(3,4-dichlorobenzenesulfonyl)piperazin-1-yl]propan-2-yl]quinazolin-4-amine], the half-maximal inhibitory concentration (IC50) was less than 1000 nM.
Then `COC(=O)Nc1nc(C)c(S(=O)(=O)N2CCN(C[C@H](C)Nc3ncnc4c([N+](=O)[O-])cccc34)CC2)s1` [Example 55, methyl N-[4-methyl-5-({4-[(2S)-2-[(8-nitroquinazolin-4-yl)amino]propyl]piperazin-1-yl}sulfonyl)-1,3-thiazol-2-yl]carbamate], with less than 1000 nM.
